Converted amounts (≈) assume the structure as drawn.
Columns and labels:
Bean = assay: Post-emergent herbicidal test, bean; assay type: in vivo; set-up: key: 1: no perceptible injury; 2: intermediate degrees of injury; 3: intermediate degrees of injury; 4: intermediate degrees of injury; 5: the plant was dead; settings: 2500 parts per million, after ten days; for Post-emergent Herbicidal, Bean: Table II; for Post Emergent Herbicidal, Bean: Table III
Protocol: (§1) Suspensions of the test compounds were prepared by dissolving one gram of compound in 50 milliliters of acetone in which had been dissolved 0.1 gram (10 percent of the weight of compound) of an alkylphenoxyethanol sufactant, as an emulsifying or dispersing agent. The resulting solution was mixed into 160 milliliters of water to give roughly 200 milliliters of a suspension containing the compound in finely divided form. The thus prepared stock suspension contained 0.5 percent by weight of compound. The test concentrations employed in the tests described below were obtained by diluting the stock suspension with water. The test procedures were as follows:
(§2) Experiments were also conducted to determine the phytotoxicity of representative compositions with respect to healthy fresh plants. Solutions of the compounds were prepared as described above to provide a concentration of 2500 parts per million of the test compound. The test plants were sprayed in accordance with the procedure described above for the Mite Foliage Spray Test so as to deliver approximately 100 milliliters of test solutions to the leaves of each plant tested. The sprayed plants and controls were set aside for approximately one hour to allow the solutions to dry and were then placed in the greenhouse. After ten days the plants were visually inspected to determine the extent of foliage injury. A rating of 1 indicates no perceptible injury; 5 indicates the plant was dead and ratings of 2, 3 and 4 indicate intermediate degrees of injury based upon the number and extent to which leaves were injured.

Cotton = assay: Post-emergent herbicidal test, cotton; assay type: in vivo; set-up: key: 1: no perceptible injury; 2: intermediate degrees of injury; 3: intermediate degrees of injury; 4: intermediate degrees of injury; 5: the plant was dead; settings: 2500 parts per million, after ten days; for Post-emergent Herbicidal, Cotton: Table II; for Post Emergent Herbicidal, Cotton: Table III
Protocol: as §1, §2

Crabgrass = assay: Preliminary herbicide seed germination test (pre-emergent), crabgrass; assay type: in vivo, Digitaria sanguinalis; set-up: key: 5: no seedling emerged; 4: few seedlings emerged and/or very severe stunting; 3: moderate reduction in stand and/or moderate stunting.; 2: very slight reduction in stand and/or slight stunting; 1: no injury, seedlings appear no different with respect to stand or growth than untreated controls; settings: ten to twelve days after application
Protocol: as §1
(§3) The following seeds were used in this test:
Crabgrass--Digitaria sanguinalis
(§4) Two […] mixtures were prepared as follows:
(§5) Each of the above mixtures was rolled separately in 5 gallon containers for approximately one-half hour on ball mill to insure uniform mixing of seeds and soil. For each compound four 3-inch pots were filled with soil to within 11/2 inches of top of pots. To two of these pots were added 70 cc. of Mixture I. To the remaining 2 pots were added 70 cc. of Mixture II. The seed-soil mixture was tamped firmly, and the pots were removed to the greenhouse and watered lightly. About 2 hours after planting, 25 milliliters of the test formulation were added to one pot containing Mixture I and one pot containing Mixture II. An equal volume of a water solution containing acetone and an emulsifier in the same concentration as the herbicidal mixture but without the candidate herbicide was also added to each of the soil-seed mixtures. These pots are used as check or control units. The test compounds were formulated by diluting the stock suspension with water to obtain the desired concentration of the compound in parts per million of the final formulation. Each compound was tested at the same concentration. […] Ratings were made according to the following designations: […]

Perennial rye grass = assay: Preliminary herbicide seed germination test (pre-emergent), perennial rye grass; assay type: in vivo, Solium perenne; set-up: key: 5: no seedling emerged; 4: few seedlings emerged and/or very severe stunting; 3: moderate reduction in stand and/or moderate stunting.; 2: very slight reduction in stand and/or slight stunting; 1: no injury, seedlings appear no different with respect to stand or growth than untreated controls; settings: ten to twelve days after application
Protocol: as §1, §3
Perennial rye grass--Solium perenne
as §4, §5

[1] = system: two-spotted mite (adults and nymphal stages); assay: Mite Foliage Spray Test (adults and nymphs); assay type: in vivo, Tetranychus urticae (Koch); set-up: key to Miticidal, Adult: A: Excellent Control; B: Partial Control; No Control; settings: for Miticidal, Adult: Table II, mortality count after four days; for LC50: Tetranychus urticae, foliar, Table III, ppm required for a 50 percent kill of mites, read-out: Miticidal LD50, Adult
Protocol: Suspensions of the test compounds were prepared by dissolving one gram of compound in 50 milliliters of acetone in which had been dissolved 0.1 gram (10 percent of the weight of compound) of an alkylphenoxyethanol sufactant, as an emulsifying or dispersing agent. The resulting solution was mixed into 160 milliliters of water to give roughly 200 milliliters of a suspension containing the compound in finely divided form. The thus prepared stock suspension contained 0.5 percent by weight of compound. The test concentrations employed in the tests described below were obtained by diluting the stock suspension with water. The test procedures were as follows: Adults and nymphal stages of the two-spotted mite (Tetranychus urticae (Koch)), reared on Tender-green beam plants at 80±5° F. and 50±5 percent relative humidity, were the tests organisms. Infested leaves from a stock culture were placed of the primary leaves of two bean plants six to eight inches in height, growing in a two-and-a-half inch clay pot. 150-200 Mites, a sufficient number for testing, transferred from the excised leaves to the fresh plants in a period of twenty-four hours. Following the twenty-four hour transfer period, the excised leaves were removed from the infested plants. The test compounds were formulated by diluting the stock suspension with water to provide suspensions containing the desired amount of test compound per million parts of final formulation. The potted plants (one pot per compound) were placed on a revolving turntable and sprayed with 100-110 milliliters of tests compound formulation by use of a DeVilbis spray gun set at 40 psi, air pressure. This application, which lasted 30 seconds, was sufficient to wet the plants to run-off. As a control, 100-110 milliliters of a water solution containing acetone and emulsifier in the same concentrations as the test compound formulation, but containing no test compound, were also sprayed on infested plants. The sprayed plants were held at 80±5° F. and 50±5 percent relative humidity for four days, after which, a mortality count of motile forms was made on the leaves of the test plants. Any individual which was capable of locomotion upon prodding was considered living. In these tests the pesticidal activity of the compounds against mites and mite eggs was rated as follows: Tests were conducted in accordance with the procedures given at pages 17 to 21 supra. The results are expressed in the same manner as used in Table II, except with respect to miticidal activity. For mite adult and mite egg comparison purposes, results are given in parts per million (ppm) required for a 50 percent kill of mites or eggs, respectively.

| SMILES | Post-emergent Herbicidal, Bean (Bean) | Post-emergent Herbicidal, Cotton (Cotton) | Pre-emergent Herbicidal, Crabgrass (Crabgrass; Table II) | Pre-emergent Herbicidal, Rye (Perennial rye grass; Table II) | Miticidal, Adult [1] | Post Emergent Herbicidal, Bean (Bean) | Post Emergent Herbicidal, Cotton (Cotton) | Pre-emergent Herbicidal, Crabgrass (Crabgrass; Table III) | Pre-emergent Herbicidal, Rye (Perennial rye grass; Table III) | LC50 [1] |
| --- | --- | --- | --- | --- | --- | --- | --- | --- | --- | --- |
| Cc1ccc(C)c(C2=C(OC(=O)C(C)C)C3CCCCC3C2=O)c1 (stereo not drawn) [Compound 29] | 1 | 2 | 1 | 1 | A |  |  |  |  |  |
| CCCCCCCCCC(=O)OC1=C(c2cc(C)ccc2C)C(=O)C2CCCCC12 (stereo not drawn) [Compound 32] | 1 | 1 | 1 | 1 | A |  |  |  |  |  |
| CCCCCCCCCCCCCCCC(=O)OC1=C(c2ccccc2C)C(=O)c2ccccc21 [reference compound] |  |  |  |  |  | 1 | 1 | 1 | 1 | 500 µg/mL (≈ 1050 µM) |
| CCCCCCCCCC(=O)OC1=C(c2cc(C)ccc2C)C(=O)c2ccccc21 [reference compound] |  |  |  |  |  | 1 | 1 | 1 | 1 | 500 µg/mL (≈ 1240 µM) |
| CCCCCCCCCCCCCCCC(=O)OC1=C(c2cc(C)ccc2C)C(=O)C(C)C1 (stereo not drawn) [Compound 18] | 2 | 2 | 1 | 4 | A |  |  |  |  |  |
| CCCCC(CC)C(=O)OC1=C(c2ccccc2C)C(=O)C2CCCCC12 (stereo not drawn) [drawing 22] |  |  |  |  |  | 1 | 2 | 2 | 3 | 7 µg/mL (≈ 19 µM) |
| Cc1ccc(C2=C(OC(=O)c3ccccc3)CCC2=O)c(C)c1 [Compound 10] | 3 | 1 | 2 | 3 | C |  |  |  |  |  |
| Cc1ccc(C2=C(OC(=O)c3ccccc3)C3CCCCC3C2=O)c(C)c1 (stereo not drawn) [Compound 27, 3-benzoyloxy-2-(2',4'-dimethylphenyl)-4,5,6,7,8,9-hexahydro-2-indenone] | 1 | 2 | 5 | 5 | A |  |  |  |  |  |
| Cc1ccccc1C1=C(OC(=O)C(C)(C)C)C2CCCCC2C1=O (stereo not drawn) [Compound 22] | 2 | 3 | 3 | 5 | A |  |  |  |  |  |
| CCCCC(CC)C(=O)OC1=C(c2cc(C)ccc2C)C(=O)CC1 (stereo not drawn) [Compound 13] | 2 | 3 | 1 | 1 | A |  |  |  |  |  |
| CCCCC(CC)C(=O)OC1=C(c2ccccc2C)C(=O)CC1 (stereo not drawn) [drawing 21] |  |  |  |  |  | 2 | 2 | 3 | 5 | 220 µg/mL (≈ 700 µM) |
| CCCCC(CC)C(=O)OC1=C(c2ccccc2C)C(=O)CC1 (stereo not drawn) [Compound 7] | 2 | 2 | 3 | 5 | A |  |  |  |  |  |
| CC(=O)OC1=C(c2ccc(Cl)cc2Cl)C(=O)CC1 [Compound 3] | 2 | 2 |  | 2 | A |  |  |  |  |  |
| CC(=O)OC1=C(c2ccccc2C)C(=O)C2CCCCC12 (stereo not drawn) [Compound 19, 3-acetoxy-2-(2'-methylphenyl)-4,5,6,7,8,9-hexahydro-2-indenone] | 3 | 2 | 3 | 3 | A |  |  |  |  |  |
| Cc1ccccc1C1=C(OC(=O)C(C)C)C2CCCCC2C1=O (stereo not drawn) [Compound 20] | 3 | 3 | 3 | 4 | A |  |  |  |  |  |
| O=C1CCC(OC(=O)c2ccccc2)=C1c1ccccc1Cl [Compound 2] | 3 | 2 | 3 | 4 | A |  |  |  |  |  |
| Cc1ccc(C)c(C2=C(OC(=O)C(C)C)CC(C)C2=O)c1 (stereo not drawn) [Compound 16] | 3 | 3 | 1 | 3 | B |  |  |  |  |  |
| CCCCCCCCCCCCCCCC(=O)OC1=C(c2cc(C)ccc2C)C(=O)CC1 [Compound 14] | 2 | 3 | 1 | 4 | A |  |  |  |  |  |
| CCCCCCCCCC(=O)OC1=C(c2ccccc2C)C(=O)C2CCCCC12 (stereo not drawn) [drawing 15] |  |  |  |  |  | 2 | 3 | 3 | 5 | 2 µg/mL (≈ 5.04 µM) |
| CC(C)C(=O)OC1=C(c2ccc(Cl)cc2Cl)C(=O)CC1 [Compound 4] | 2 | 2 |  | 1 | B |  |  |  |  |  |
| CCCCCCCCCCCCCCCC(=O)OC1=C(c2cc(C)ccc2C)C(=O)C2CCCCC12 (stereo not drawn) [Compound 33] | 1 | 1 | 1 | 1 | A |  |  |  |  |  |
| CCCCC(CC)C(=O)OC1=C(c2ccc(Cl)cc2Cl)C(=O)CC1 (stereo not drawn) [Compound 5] | 3 | 2 |  | 1 | A |  |  |  |  |  |
| CCCCCCCCCCCCCCCC(=O)OC1=C(c2ccc(Cl)cc2Cl)C(=O)CC1 [Compound 6] | 1 | 1 |  | 1 | A |  |  |  |  |  |
